In ChEMBL document CHEMBL1201861, “Genomics of Drug Sensitity in Cancer screening data, Wellcome Trust Sanger Institute”:

Experiments:
COR-L23 = assay: cells; assay type: functional, cell-based; conditions: Homo sapiens;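 note: cell viability assay measuring how strongly compounds suppress growth of COR-L23 cells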
Description: SANGER: Inhibition of human COR-L23 cell growth in a cell viability assay.

Ca-Ski = assay: cells; assay type: functional, cell-based; conditions: Homo sapiens;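 note: cell viability assay measuring inhibition of Ca-Ski cell growth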
Description: SANGER: Inhibition of human Ca-Ski cell growth in a cell viability assay.

CaR-1 = assay: cells; assay type: functional, cell-based; conditions: Homo sapiens;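 note: growth inhibition of human CaR-1 cancer cells, read out with a cell viability assay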
Description: SANGER: Inhibition of human CaR-1 cell growth in a cell viability assay.

DBTRG-05MG = assay: cells; assay type: functional, cell-based; conditions: Homo sapiens;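 note: cell viability assay measuring growth inhibition of human DBTRG-05MG cells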
Description: SANGER: Inhibition of human DBTRG-05MG cell growth in a cell viability assay.

H4 = assay: cells; assay type: functional, cell-based; conditions: Homo sapiens
Description: SANGER: Inhibition of human H4 cell growth in a cell viability assay.

HCT-116 = assay: cells; assay type: functional, cell-based; conditions: Homo sapiens
Description: SANGER: Inhibition of human HCT-116 cell growth in a cell viability assay.

HT-1080 = assay: cells; assay type: functional, cell-based; conditions: Homo sapiens
Description: SANGER: Inhibition of human HT-1080 cell growth in a cell viability assay.

HT-3 = assay: cells; assay type: functional, cell-based; conditions: Homo sapiens;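 note: growth inhibition measured with a cell viability readout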
Description: SANGER: Inhibition of human HT-3 cell growth in a cell viability assay.

HT55 = assay: cells; assay type: functional, cell-based; conditions: Homo sapiens;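 note: cell viability readout measuring growth inhibition of human HT55 cells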
Description: SANGER: Inhibition of human HT55 cell growth in a cell viability assay.

Hs-578T = assay: cells; assay type: functional, cell-based; conditions: Homo sapiens
Description: SANGER: Inhibition of human Hs-578-T cell growth in a cell viability assay.

LCLC-97TM1 = assay: cells; assay type: functional, cell-based; conditions: Homo sapiens;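 note: cell viability assay measuring growth inhibition of human LCLC-97TM1 cells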
Description: SANGER: Inhibition of human LCLC-97TM1 cell growth in a cell viability assay.

LU-99A = assay: cells; assay type: functional, cell-based; conditions: Homo sapiens;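 note: growth inhibition of LU-99A cells, read out with a cell viability assay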
Description: SANGER: Inhibition of human LU-99A cell growth in a cell viability assay.

MCF7 = assay: cells; assay type: functional, cell-based; conditions: Homo sapiens;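 note: growth inhibition of human MCF7 cells, read out with a cell viability assay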
Description: SANGER: Inhibition of human MCF7 cell growth in a cell viability assay.

MIA PaCa-2 = assay: cells; assay type: functional, cell-based; conditions: Homo sapiens;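 note: growth inhibition of MIA PaCa-2 cells, read out with a cell viability assay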
Description: SANGER: Inhibition of human MIA-PaCa-2 cell growth in a cell viability assay.

NCI-H2228 = assay: cells; assay type: functional, cell-based; conditions: Homo sapiens;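 note: growth inhibition of human NCI-H2228 cells, read out by a cell viability assay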
Description: SANGER: Inhibition of human NCI-H2228 cell growth in a cell viability assay.

NCI-H2347 = assay: cells; assay type: functional, cell-based; conditions: Homo sapiens;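 note: growth inhibition of the cell line, read out with a cell viability assay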
Description: SANGER: Inhibition of human NCI-H2347 cell growth in a cell viability assay.

NCI-H292 = assay: cells; assay type: functional, cell-based; conditions: Homo sapiens;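 note: growth inhibition of NCI-H292 cells, read out with a cell viability assay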
Description: SANGER: Inhibition of human NCI-H292 cell growth in a cell viability assay.

NCI-H358 = assay: cells; assay type: functional, cell-based; conditions: Homo sapiens;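 note: growth inhibition of NCI-H358 human cells, read out with a cell viability assay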
Description: SANGER: Inhibition of human NCI-H358 cell growth in a cell viability assay.

NCI-H441 = assay: cells; assay type: functional, cell-based; conditions: Homo sapiens;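 note: growth inhibition of NCI-H441 cells, read out with a cell viability assay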
Description: SANGER: Inhibition of human NCI-H441 cell growth in a cell viability assay.

OAW-28 = assay: cells; assay type: functional, cell-based; conditions: Homo sapiens;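 note: growth inhibition of OAW-28 cells, read out with a cell viability assay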
Description: SANGER: Inhibition of human OAW-28 cell growth in a cell viability assay.

OVCAR-3 = assay: cells; assay type: functional, cell-based; conditions: Homo sapiens;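 note: growth inhibition of human OVCAR-3 cells, determined by a cell viability assay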
Description: SANGER: Inhibition of human OVCAR-3 cell growth in a cell viability assay.

RPMI-2650 = assay: cells; assay type: functional, cell-based; conditions: Homo sapiens
Description: SANGER: Inhibition of human RPMI-2650 cell growth in a cell viability assay.

RT-112 = assay: cells; assay type: functional, cell-based; conditions: Homo sapiens
Description: SANGER: Inhibition of human RT-112 cell growth in a cell viability assay.

SK-MES-1 = assay: cells; assay type: functional, cell-based; conditions: Homo sapiens;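 note: growth inhibition of human SK-MES-1 cells, read out with a cell viability assay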
Description: SANGER: Inhibition of human SK-MES-1 cell growth in a cell viability assay.

SKG-IIIa = assay: cells; assay type: functional, cell-based; conditions: Homo sapiens;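 note: cell growth inhibition, read out with a cell viability assay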
Description: SANGER: Inhibition of human SKG-IIIa cell growth in a cell viability assay.

SNU-423 = assay: cells; assay type: functional, cell-based; conditions: Homo sapiens
Description: SANGER: Inhibition of human SNU-423 cell growth in a cell viability assay.

SW13 = assay: cells; assay type: functional, cell-based; conditions: Homo sapiens;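 note: IC50 is inhibition of SW13 cell growth, read out with a cell viability assay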
Description: SANGER: Inhibition of human SW13 cell growth in a cell viability assay.

SW1463 = assay: cells; assay type: functional, cell-based; conditions: Homo sapiens;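 note: growth inhibition of SW1463 cells, determined with a cell viability assay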
Description: SANGER: Inhibition of human SW1463 cell growth in a cell viability assay.

SW780 = assay: cells; assay type: functional, cell-based; conditions: Homo sapiens;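 note: growth inhibition of the cells, read out with a cell viability assay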
Description: SANGER: Inhibition of human SW780 cell growth in a cell viability assay.

SW837 = assay: cells; assay type: functional, cell-based; conditions: Homo sapiens;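 note: growth inhibition of SW837 cells, determined with a cell viability assay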
Description: SANGER: Inhibition of human SW837 cell growth in a cell viability assay.

SW948 = assay: cells; assay type: functional, cell-based; conditions: Homo sapiens;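 note: growth inhibition of SW948 cells, read out with a cell viability assay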
Description: SANGER: Inhibition of human SW948 cell growth in a cell viability assay.

TCC-SUP = assay: cells; assay type: functional, cell-based; conditions: Homo sapiens;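 note: growth inhibition of TCC-SUP cells, read out with a cell viability assay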
Description: SANGER: Inhibition of human TCCSUP cell growth in a cell viability assay.

CWR22R = assay: cells; assay type: functional, cell-based; conditions: Homo sapiens, 22Rv1;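 note: growth inhibition of 22Rv1 cells, read out with a cell viability assay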
Description: SANGER: Inhibition of human 22RV1 cell growth in a cell viability assay.

769-P = assay: cells; assay type: functional, cell-based; conditions: Homo sapiens
Description: SANGER: Inhibition of human 769-P cell growth in a cell viability assay.

A 172 = assay: cells; assay type: functional, cell-based; conditions: Homo sapiens;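 note: growth inhibition of A172 cells, measured with a cell viability readout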
Description: SANGER: Inhibition of human A172 cell growth in a cell viability assay.

A2058 = assay: cells; assay type: functional, cell-based; conditions: Homo sapiens;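 note: reduction of A2058 cell growth, read out with a viability assay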
Description: SANGER: Inhibition of human A2058 cell growth in a cell viability assay.

A2780 = assay: cells; assay type: functional, cell-based; conditions: Homo sapiens;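 note: growth inhibition of A2780 cells, read out with a cell viability assay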
Description: SANGER: Inhibition of human A2780 cell growth in a cell viability assay.

CAL-12T = assay: cells; assay type: functional, cell-based; conditions: Homo sapiens;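 note: growth inhibition of human CAL-12T cells, read out with a cell viability assay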
Description: SANGER: Inhibition of human CAL-12T cell growth in a cell viability assay.

CAL-39 = assay: cells; assay type: functional, cell-based; conditions: Homo sapiens;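 note: cell viability assay measuring growth inhibition of CAL-39 cells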
Description: SANGER: Inhibition of human CAL-39 cell growth in a cell viability assay.

CAL-54 = assay: cells; assay type: functional, cell-based; conditions: Homo sapiens;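 note: growth inhibition of CAL-54 cells, read out by a viability measurement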
Description: SANGER: Inhibition of human CAL-54 cell growth in a cell viability assay.

CAL-72 = assay: cells; assay type: functional, cell-based; conditions: Homo sapiens;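 note: cell viability assay measuring inhibition of proliferation in the CAL-72 cell line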
Description: SANGER: Inhibition of human CAL-72 cell growth in a cell viability assay.

UMUC3 = assay: cells; assay type: functional, cell-based; conditions: Homo sapiens;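 note: growth inhibition of human UM-UC-3 cells, read out with a cell viability assay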
Description: SANGER: Inhibition of human UM-UC-3 cell growth in a cell viability assay.

VMRC-RCZ = assay: cells; assay type: functional, cell-based; conditions: Homo sapiens
Description: SANGER: Inhibition of human VMRC-RCZ cell growth in a cell viability assay.

LB373-MEL-D = assay: cells; assay type: functional, cell-based, Homo sapiens; conditions: Homo sapiens, LB373-MEL-D;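 note: growth inhibition of the cell line, read out in a cell viability assay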
Description: SANGER: Inhibition of human LB373-MEL-D cell growth in a cell viability assay.

23132-87 = assay: cells; assay type: functional, cell-based; conditions: Homo sapiens
Description: SANGER: Inhibition of human 23132-87 cell growth in a cell viability assay.

ST486 = assay: SANGER: Inhibition of human ST486 cell growth in a cell viability assay.; assay type: functional, cell-based; conditions: Homo sapiens, ST486
BL-70 = assay: SANGER: Inhibition of human BL-70 cell growth in a cell viability assay.; assay type: functional, cell-based; conditions: Homo sapiens, BL-70

SMILES: O=C(NCCCNc1nc(Nc2cccc(NC(=O)N3CCCC3)c2)ncc1I)c1cccs1 [BX-795]
- IC50 (COR-L23): 4.02 µM
- IC50 (Ca-Ski): > 5 µM
- IC50 (CaR-1): > 5 µM
- IC50 (DBTRG-05MG): > 5 µM
- IC50 (H4): 1.1 µM
- IC50 (HCT-116): 4.99 µM
- IC50 (HT-1080): > 5 µM
- IC50 (HT-3): > 5 µM
- IC50 (HT55): > 5 µM
- IC50 (Hs-578T): 2.42 µM
- IC50 (LCLC-97TM1): > 5 µM
- IC50 (LU-99A): > 5 µM
- IC50 (MCF7): > 5 µM
- IC50 (MIA PaCa-2): > 5 µM
- IC50 (NCI-H2228): > 5 µM
- IC50 (NCI-H2347): 4.92 µM
- IC50 (NCI-H292): 2.58 µM
- IC50 (NCI-H358): > 5 µM
- IC50 (NCI-H441): > 5 µM
- IC50 (OAW-28): > 5 µM
- IC50 (OVCAR-3): > 5 µM
- IC50 (RPMI-2650): > 5 µM
- IC50 (RT-112): 4.01 µM
- IC50 (SK-MES-1): 2.96 µM
- IC50 (SKG-IIIa): > 5 µM
- IC50 (SNU-423): 3.91 µM
- IC50 (SW13): > 5 µM
- IC50 (SW1463): > 5 µM
- IC50 (SW780): 3.26 µM
- IC50 (SW837): > 5 µM
- IC50 (SW948): > 5 µM
- IC50 (TCC-SUP): > 5 µM
- IC50 (CWR22R): > 5 µM
- IC50 (769-P): > 5 µM
- IC50 (A 172): 4.45 µM
- IC50 (A2058): 2.98 µM
- IC50 (A2780): > 5 µM
- IC50 (CAL-12T): 4.79 µM
- IC50 (CAL-39): 4.31 µM
- IC50 (CAL-54): > 5 µM
- IC50 (CAL-72): 4.22 µM
- IC50 (UMUC3): > 5 µM
- IC50 (VMRC-RCZ): 2.77 µM

SMILES: Cc1ccc(-n2nc(C(C)(C)C)cc2NC(=O)Nc2ccc(OCCN3CCOCC3)c3ccccc23)cc1 [DORAMAPIMOD]
- IC50 (COR-L23): > 10 µM
- IC50 (Ca-Ski): > 10 µM
- IC50 (CaR-1): > 10 µM
- IC50 (DBTRG-05MG): > 10 µM
- IC50 (H4): > 10 µM
- IC50 (HCT-116): > 10 µM
- IC50 (HT-1080): > 10 µM
- IC50 (HT-3): > 10 µM
- IC50 (HT55): > 10 µM
- IC50 (Hs-578T): > 10 µM
- IC50 (LB373-MEL-D): > 10 µM
- IC50 (LCLC-97TM1): > 10 µM
- IC50 (LU-99A): > 10 µM
- IC50 (MCF7): > 10 µM
- IC50 (MIA PaCa-2): > 10 µM
- IC50 (NCI-H2228): > 10 µM
- IC50 (NCI-H2347): > 10 µM
- IC50 (NCI-H292): > 10 µM
- IC50 (NCI-H358): 7.54 µM
- IC50 (NCI-H441): > 10 µM
- IC50 (OAW-28): > 10 µM
- IC50 (OVCAR-3): > 10 µM
- IC50 (RPMI-2650): > 10 µM
- IC50 (RT-112): > 10 µM
- IC50 (SK-MES-1): > 10 µM
- IC50 (SKG-IIIa): > 10 µM
- IC50 (SNU-423): > 10 µM
- IC50 (SW13): > 10 µM
- IC50 (SW1463): > 10 µM
- IC50 (SW780): > 10 µM
- IC50 (SW837): > 10 µM
- IC50 (SW948): > 10 µM
- IC50 (TCC-SUP): > 10 µM
- IC50 (CWR22R): > 10 µM
- IC50 (23132-87): > 10 µM
- IC50 (769-P): > 10 µM
- IC50 (A 172): > 10 µM
- IC50 (A2058): > 10 µM
- IC50 (A2780): > 10 µM
- IC50 (CAL-12T): > 10 µM
- IC50 (CAL-39): > 10 µM
- IC50 (CAL-54): > 10 µM
- IC50 (CAL-72): > 10 µM
- IC50 (UMUC3): > 10 µM
- IC50 (VMRC-RCZ): > 10 µM

SMILES: CO[C@@H]1[C@H](N(C)C(=O)c2ccccc2)C[C@H]2O[C@]1(C)n1c3ccccc3c3c4c(c5c6ccccc6n2c5c31)C(=O)NC4 [MIDOSTAURIN]
- IC50 (DBTRG-05MG): > 0.512 µM
- IC50 (H4): 0.14 µM
- IC50 (HT-1080): 0.16 µM
- IC50 (LCLC-97TM1): > 0.512 µM
- IC50 (MCF7): 0.333 µM
- IC50 (ST486): 0.349 µM
- IC50 (23132-87): > 0.512 µM
- IC50 (BL-70): > 0.512 µM
- IC50 (CAL-54): 0.209 µM

SMILES: CC1(C)CCC(c2ccc(Cl)cc2)=C(CN2CCN(c3ccc(C(=O)NS(=O)(=O)c4ccc(N[C@H](CCN5CCOCC5)CSc5ccccc5)c(S(=O)(=O)C(F)(F)F)c4)cc3)CC2)C1 [NAVITOCLAX]
- IC50 (COR-L23): 1.8 µM
- IC50 (Ca-Ski): > 2 µM
- IC50 (CaR-1): > 2 µM
- IC50 (DBTRG-05MG): > 2 µM
- IC50 (H4): > 2 µM
- IC50 (HCT-116): > 2 µM
- IC50 (HT-1080): > 2 µM
- IC50 (HT-3): > 2 µM
- IC50 (HT55): > 2 µM
- IC50 (Hs-578T): > 2 µM
- IC50 (LCLC-97TM1): > 2 µM
- IC50 (LU-99A): > 2 µM
- IC50 (MCF7): > 2 µM
- IC50 (MIA PaCa-2): > 2 µM
- IC50 (NCI-H2228): > 2 µM
- IC50 (NCI-H2347): > 2 µM
- IC50 (NCI-H292): > 2 µM
- IC50 (NCI-H358): > 2 µM
- IC50 (NCI-H441): > 2 µM
- IC50 (OAW-28): 0.784 µM
- IC50 (OVCAR-3): > 2 µM
- IC50 (RPMI-2650): > 2 µM
- IC50 (RT-112): > 2 µM
- IC50 (SK-MES-1): > 2 µM
- IC50 (SKG-IIIa): > 2 µM
- IC50 (SNU-423): 1.78 µM
- IC50 (SW13): > 2 µM
- IC50 (SW1463): > 2 µM
- IC50 (SW780): > 2 µM
- IC50 (SW837): > 2 µM
- IC50 (SW948): > 2 µM
- IC50 (TCC-SUP): > 2 µM
- IC50 (CWR22R): > 2 µM
- IC50 (769-P): > 2 µM
- IC50 (A 172): > 2 µM
- IC50 (A2058): > 2 µM
- IC50 (A2780): > 2 µM
- IC50 (CAL-12T): > 2 µM
- IC50 (CAL-39): > 2 µM
- IC50 (CAL-54): > 2 µM
- IC50 (CAL-72): > 2 µM
- IC50 (UMUC3): > 2 µM
- IC50 (VMRC-RCZ): > 2 µM
